Measured values taken from publication PMC4890168 (Journal of medicinal chemistry, 2016).
Blank lines part the entries; values can stand above or below the compound they belong to.

Columns and labels:
PKA = PKA (Homo sapiens, UniProt P17612); assay: PKA inhibition, ADP-Glo Kinase Assay
[1] = tested on: cardiomyocytes isolated from adult mice; assay: Contractility in mouse cardiomyocytes; settings: for potency at stimulating cardiomyocyte contraction: compared with lead 2, isoproterenol stimulation
GRK5 = GRK5 (Homo sapiens, UniProt P34947); assay: GRK5 kinase inhibition
ROCK1 = ROCK1 (Homo sapiens, UniProt Q13464); assay: ROCK1 inhibition, ADP-Glo Kinase Assay
GRK1 = biological target: T1, GRK1 (Homo sapiens, UniProt Q15835); assay: GRK1 kinase inhibition
T1 sequence (Q15835 1-563): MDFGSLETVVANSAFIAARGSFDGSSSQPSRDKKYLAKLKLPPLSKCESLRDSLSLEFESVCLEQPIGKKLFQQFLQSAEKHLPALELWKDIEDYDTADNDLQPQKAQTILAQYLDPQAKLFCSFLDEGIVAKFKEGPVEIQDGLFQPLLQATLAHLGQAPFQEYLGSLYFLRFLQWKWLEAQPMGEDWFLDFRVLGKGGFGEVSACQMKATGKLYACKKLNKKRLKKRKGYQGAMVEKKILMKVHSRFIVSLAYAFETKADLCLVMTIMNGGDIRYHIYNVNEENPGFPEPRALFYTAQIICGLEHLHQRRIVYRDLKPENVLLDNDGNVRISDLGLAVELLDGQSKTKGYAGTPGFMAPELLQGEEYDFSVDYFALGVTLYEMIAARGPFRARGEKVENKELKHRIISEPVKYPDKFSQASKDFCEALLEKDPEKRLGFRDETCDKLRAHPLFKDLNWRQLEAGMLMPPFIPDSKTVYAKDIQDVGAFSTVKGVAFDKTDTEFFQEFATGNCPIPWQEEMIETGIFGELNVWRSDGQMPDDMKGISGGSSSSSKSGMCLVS

ROCK1, sequence (Q13464 whole entry, species assumed): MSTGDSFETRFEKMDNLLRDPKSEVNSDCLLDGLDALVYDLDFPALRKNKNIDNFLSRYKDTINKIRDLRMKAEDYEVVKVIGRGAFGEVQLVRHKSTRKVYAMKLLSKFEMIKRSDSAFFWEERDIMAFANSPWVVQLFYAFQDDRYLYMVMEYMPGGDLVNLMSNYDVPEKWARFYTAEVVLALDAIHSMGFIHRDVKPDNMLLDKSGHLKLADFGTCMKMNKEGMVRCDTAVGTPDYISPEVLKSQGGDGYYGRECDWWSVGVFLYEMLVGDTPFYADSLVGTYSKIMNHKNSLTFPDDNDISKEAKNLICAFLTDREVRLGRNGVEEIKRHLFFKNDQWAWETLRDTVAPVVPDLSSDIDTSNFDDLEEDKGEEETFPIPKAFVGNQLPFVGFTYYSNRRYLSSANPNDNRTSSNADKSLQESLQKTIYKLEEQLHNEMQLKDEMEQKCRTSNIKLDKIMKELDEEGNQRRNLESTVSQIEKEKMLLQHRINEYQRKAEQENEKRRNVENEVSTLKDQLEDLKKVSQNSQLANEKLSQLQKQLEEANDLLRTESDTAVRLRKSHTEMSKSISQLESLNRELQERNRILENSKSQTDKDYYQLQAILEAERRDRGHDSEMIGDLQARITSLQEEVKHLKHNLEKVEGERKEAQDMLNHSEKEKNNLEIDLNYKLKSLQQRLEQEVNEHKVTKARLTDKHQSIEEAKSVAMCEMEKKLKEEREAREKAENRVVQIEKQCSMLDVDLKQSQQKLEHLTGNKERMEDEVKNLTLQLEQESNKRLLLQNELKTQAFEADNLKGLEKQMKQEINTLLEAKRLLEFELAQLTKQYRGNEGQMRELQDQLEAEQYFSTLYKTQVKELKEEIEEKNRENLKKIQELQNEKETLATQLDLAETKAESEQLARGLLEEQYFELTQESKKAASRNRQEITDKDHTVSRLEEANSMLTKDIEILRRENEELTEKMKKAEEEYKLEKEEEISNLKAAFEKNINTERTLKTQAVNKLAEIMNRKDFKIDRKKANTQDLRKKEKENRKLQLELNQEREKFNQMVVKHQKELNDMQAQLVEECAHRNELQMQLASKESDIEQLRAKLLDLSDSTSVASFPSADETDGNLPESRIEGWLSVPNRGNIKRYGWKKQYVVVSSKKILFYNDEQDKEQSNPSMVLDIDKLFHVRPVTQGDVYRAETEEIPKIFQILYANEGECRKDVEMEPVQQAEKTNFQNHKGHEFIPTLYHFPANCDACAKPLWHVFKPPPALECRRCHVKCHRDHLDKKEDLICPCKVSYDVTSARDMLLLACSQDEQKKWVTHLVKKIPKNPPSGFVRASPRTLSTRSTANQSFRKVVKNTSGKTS
GRK5, sequence (P34947 whole entry, species assumed): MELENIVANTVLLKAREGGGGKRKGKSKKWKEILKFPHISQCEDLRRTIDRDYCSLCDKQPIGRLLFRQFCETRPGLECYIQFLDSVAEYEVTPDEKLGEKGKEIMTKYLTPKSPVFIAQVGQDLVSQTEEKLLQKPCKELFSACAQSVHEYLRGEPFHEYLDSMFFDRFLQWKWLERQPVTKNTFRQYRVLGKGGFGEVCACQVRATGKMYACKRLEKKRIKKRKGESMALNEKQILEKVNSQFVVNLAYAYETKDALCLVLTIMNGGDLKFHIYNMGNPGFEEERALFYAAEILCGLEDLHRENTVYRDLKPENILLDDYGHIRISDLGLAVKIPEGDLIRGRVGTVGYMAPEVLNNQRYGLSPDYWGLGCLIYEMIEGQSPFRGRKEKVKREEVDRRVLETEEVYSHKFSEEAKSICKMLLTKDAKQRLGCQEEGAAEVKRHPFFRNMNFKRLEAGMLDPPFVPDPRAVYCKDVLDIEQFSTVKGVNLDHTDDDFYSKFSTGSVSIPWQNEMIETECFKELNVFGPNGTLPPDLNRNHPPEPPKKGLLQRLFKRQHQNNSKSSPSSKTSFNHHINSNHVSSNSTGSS

selectivity for GRK2 over GRK5 (GRK5): over 770 fold
IC50 (PKA): > 100 µM
selectivity for GRK2 over GRK1 (GRK1): over 770 fold
SMILES: CC1=C(C(=O)Nc2ccc3[nH]ncc3c2)C(c2ccc(F)c(C(=O)NCc3c(Cl)cccc3Cl)c2)NC(=O)N1 (stereo not shown) [Compound 12l, 4-(3-((2,6-Dichlorobenzyl)carbamoyl)-4-fluorophenyl)-N-(1H-indazol-5-yl)-6-methyl-2-oxo-1,2,3,4-tetrahydropyrimidine-5-carboxamide]

IC50 (ROCK1): ~0.01 µM
increase in GRK1 potency in comparison to 12h (GRK1): 50 fold
SMILES: CC1=C(C(=O)Nc2ccc3[nH]ncc3c2)C(c2ccc(F)c(C(=O)NCc3nccc4ccccc34)c2)NC(=O)N1 (stereo not shown) [Compound 12k, 4-(4-Fluoro-3-((isoquinolin-1-ylmethyl)carbamoyl)phenyl)-N-(1H-indazol-5-yl)-6-methyl-2-oxo-1,2,3,4-tetrahydropyrimidine-5-carboxamide]

IC50 (PKA): > 100 µM
SMILES: CC1=C(C(=O)Nc2ccc3[nH]ncc3c2)C(c2ccc(F)c(C(=O)NCc3c(C)cccc3C)c2)NC(=O)N1 (stereo not shown) [Compound 12m, 4-(3-((2,6-Dimethylbenzyl)carbamoyl)-4-fluorophenyl)-N-(1H-indazol-5-yl)-6-methyl-2-oxo-1,2,3,4-tetrahydropyrimidine-5 carboxamide]
potency at stimulating cardiomyocyte contraction [1]: equivalent to or slightly more potent than the lead 2

The remaining lines, values behind:

SMILES: CC1=C(C(=O)Nc2ccc3[nH]ncc3c2)C(c2ccc(F)c(C(=O)NCc3c(F)cccc3F)c2)NC(=O)N1 (stereo not shown) [Compound 12d, 4-(3-((2,6-Difluorobenzyl)carbamoyl)-4-fluorophenyl)-N-(1H-indazol-5-yl)-6-methyl-2-oxo-1,2,3,4-tetrahydropyrimidine-5-carboxamide]
IC50 (PKA): > 100 µM
potency at stimulating cardiomyocyte contraction [1]: equivalent to or slightly more potent than the lead 2

SMILES: COc1cccc(OC)c1CNC(=O)c1cc(C2NC(=O)NC(C)=C2C(=O)Nc2ccc3[nH]ncc3c2)ccc1F (stereo not shown) [Compound 12n, 4-(3-((2,6-Dimethoxybenzyl)carbamoyl)-4-fluorophenyl)-N-(1H-indazol-5-yl)-6-methyl-2-oxo-1,2,3,4-tetrahydropyrimidine-5-carboxamide]
decrease in potency at GRK5 compared to 12e (GRK5): 43 fold
decrease in potency at ROCK1 compared to 12e (ROCK1): over 175 fold
inhibition of ROCK1 (ROCK1): no detectable inhibition
IC50 (PKA): > 100 µM
potency at stimulating cardiomyocyte contraction [1]: equivalent to or slightly more potent than the lead 2
decrease in potency at GRK1 compared to 12e (GRK1): 6 fold

SMILES: CC1=C(C(=O)Nc2ccc3[nH]ncc3c2)C(c2ccc(F)cc2)NC(=O)N1 (stereo not shown) [Compound 2, GSK180736A, reference compound]
concentration showing similar efficacy as paroxetine (10 μM) on contractility ([1]; isoproterenol 0.5 μM, 10 min pretreatment): 1 µM
